Earlier results, collected in US20240269079A1, “MELATONIN FORMULATION IN SOLID DOSAGE FORM” (AGB-Pharma AB, priority 2021, published 2024).

Assays:
[1] = after administration

For COc1ccc2[nH]cc(CCNC(C)=O)c2c1 [melatonin, N-acetyl-5-methoxytryptamine], the “Time for blood levels to return to normal daytime levels” value [1] is listed as 6 to 8 h and the “Solubility in aqueous solutions” value is listed as “low solubility”.
